# In patent US9302999B2, “Substituted triazoles as herbicides” (E. I. DU PONT DE NEMOURS AND COMPANY, priority 2012, dated 2016):
# How the values were obtained:
# Assay type in all cases: in vivo
# [1] = test system: foxtail, green (green foxtail, Setaria viridis); experiment: Test C pre-/postemergence: foxtail, green
# Excerpt: (§1) Seeds of plant species selected from blackgrass (Alopecurus myosuroides), bromegrass, downy (downy bromegrass, Bromus tectorum), foxtail, green (green foxtail, Setaria viridis), ryegrass, Italian (Italian ryegrass, Lolium multiflorum), winter wheat (Triticum aestivum), wild oat (Avena fatua), galium (catchweed bedstraw, Galium aparine), bermudagrass (Cynodon dactylon), surinam grass (Brachiaria decumbens), cocklebur (common cocklebur, Xanthium strumarium), corn (Zea mays), large crabgrass (Digitaria sanguinalis), woolly cupgrass (Eriochloa villosa), foxtail, giant (giant foxtail, Setaria faberii), goosegrass (Eleusine indica), johnsongrass (Sorghum halepense), kochia (Kochia scoparia), lambsquarters (Chenopodium album), morningglory (Ipomoea coccinea), nightshade (eastern black nightshade, Solanum ptycanthum), nutsedge, yellow (yellow nutsedge, Cyperus esculentus), pigweed (Amaranthus retroflexus), ragweed (common ragweed, Ambrosia elation), soybean (Glycine max), common (oilseed) sunflower (Helianthus annuus), Russian thistle (Salsola kali) and velvetleaf (Abutilon theophrasti) were planted into a blend of loam soil and sand and treated preemergence with test chemicals formulated in a non-phytotoxic solvent mixture which included a surfactant.
# (§2) At the same time, plants selected from these crop and weed species and also barley (winter barley, Hordeum vulgare), canarygrass (Phalaris minor), chickweed (common chickweed, Stellaria media) windgrass (Apera spica-venti) and deadnettle (henbit deadnettle, Lamium amplexicaule) were planted in pots containing Redi-Earth® planting medium (Scotts Company, 14111 Scottslawn Road, Marysville, Ohio 43041) comprising spaghnum peat moss, vermiculite, wetting agent and starter nutrients and treated with postemergence applications of test chemicals formulated in the same manner. Plants ranged in height from 2 to 18 cm (1- to 4-leaf stage) for postemergence treatments.
# (§3) Treated plants and controls were maintained in a greenhouse for 13 to 15 days, after which time all species were compared to controls and visually evaluated. Plant response ratings, summarized in Table C, are based on a scale of 0 to 100 where 0 is no effect and 100 is complete control. A dash (-) response means no test result.
# [2] = test system: surinam grass (Brachiaria decumbens); experiment: Test C pre-/postemergence: surinam grass
# Excerpt: as §1, §2, §3
# [3] = test system: goosegrass (Eleusine indica); experiment: Test C pre-/postemergence: goosegrass
# Excerpt: as §1, §2, §3
# [4] = test system: canarygrass (Phalaris minor); experiment: Test C postemergence: canarygrass
# Excerpt: as §2, §3
# [5] = Postemergence, 31 g ai/ha, scale 0 to 100 (0 no effect, 100 complete control)
# [6] = Postemergence, 62 g ai/ha, scale 0 to 100 (0 no effect, 100 complete control)
# [7] = Postemergence, 125 g ai/ha, scale 0 to 100, 0 no effect, 100 complete control
# [8] = Postemergence, 250 g ai/ha, scale 0 to 100
# [9] = Preemergence, 31 g ai/ha, scale of 0 to 100, 0 is no effect, 100 is complete control
# [10] = Preemergence, 62 g ai/ha, scale of 0 to 100, 0 is no effect, 100 is complete control
# [11] = Preemergence, 125 g ai/ha, scale 0 to 100, 0 no effect, 100 complete control
# [12] = Preemergence, 250 g ai/ha, scale 0 to 100, 0 no effect, 100 complete control
# [13] = 31 g ai/ha, scale 0 to 100 (0 no effect, 100 complete control)
# [14] = 62 g ai/ha, scale 0 to 100 (0 no effect, 100 complete control)
# [15] = 125 g ai/ha, scale 0 to 100, 0 no effect, 100 complete control
Structure (SMILES),"Plant response rating, Foxtail, Green [1, 5]","Plant response rating, Foxtail, Green [1, 6]","Plant response rating, Foxtail, Green [1, 7]","Plant response rating, Foxtail, Green [1, 8]","Plant response rating, Foxtail, Green [1, 9]","Plant response rating, Foxtail, Green [1, 10]","Plant response rating, Foxtail, Green [1, 11]","Plant response rating, Foxtail, Green [1, 12]","Plant response rating, Surinam Grass [2, 5]","Plant response rating, Surinam Grass [2, 6]","Plant response rating, Surinam Grass [2, 7]","Plant response rating, Surinam Grass [2, 8]","Plant response rating, Surinam Grass [2, 9]","Plant response rating, Surinam Grass [2, 10]","Plant response rating, Surinam Grass [2, 11]","Plant response rating, Surinam Grass [2, 12]","Plant response rating, Goosegrass [3, 5]","Plant response rating, Goosegrass [3, 6]","Plant response rating, Goosegrass [3, 7]","Plant response rating, Goosegrass [3, 8]",other results
"Cc1nn(-c2ccc(C(F)(F)F)cc2)nc1Cc1ccnc(C(F)(F)F)c1 [Compound 47, 4-[[5-methyl-2-[4-(trifluoromethyl)phenyl]-2H-1,2,3-triazol-4-yl]methyl]-2-(trifluoromethyl)pyridine]",20,98,100,100,100,100,100,100,5,10,60,60,5,20,65,65,5,35,70,75,"Plant response rating, Goosegrass [3, 9]: 98; Plant response rating, Goosegrass [3, 10]: 100; Plant response rating, Goosegrass [3, 11]: 100; Plant response rating, Goosegrass [3, 12]: 100; Plant response rating, Canarygrass [4, 13]: 60; Plant response rating, Canarygrass [4, 14]: 75; Plant response rating, Canarygrass [4, 15]: 85; Plant response rating, Canarygrass ([4]; 250 g ai/ha, scale 0 to 100): 90"
Fc1ccc(-n2nc(Cc3ccnc(C(F)(F)F)c3)c(OCC(F)(F)F)n2)cc1 [Compound 142],100,100,100,100,90,90,90,90,40,40,45,50,60,75,98,98,35,35,70,90,"Plant response rating, Goosegrass [3, 9]: 100; Plant response rating, Goosegrass [3, 10]: 100; Plant response rating, Goosegrass [3, 11]: 100; Plant response rating, Goosegrass [3, 12]: 100; Plant response rating, Canarygrass [4, 13]: 45; Plant response rating, Canarygrass [4, 14]: 80; Plant response rating, Canarygrass [4, 15]: 85; Plant response rating, Canarygrass ([4]; 250 g ai/ha, scale 0 to 100): 100"
